Laboratory results reported in EP0467660A2, “Use of d-limonenes as testosterone-5-alpha-reductase inhibitor and as hair grower” (Miyauchi, Yutaka, priority 1990, dated 1992).

System: testosterone 5α-reductase
Assay: Testosterone 5α-reductase enzymatic activity inhibitory ratio (crude rat prostate enzyme, [4-14C]-testosterone to DHT conversion, TLC)
Assay type: biochemical, Wristar male rat
Conditions: 37°C, two hours; for inhibitory effect on the testosterone 5α-reductase activity: result in words, Figs. 3-5
Description: A Wristar male rat weighing 250-300 g was sacrificed by bleeding, and its prostata was excised. The prostata was cut into fragments under ice-cooling. A 0.1 M HEPES buffer solution (pH: 7.4) containing 0.25 M sucrose (the buffer solution is hereinafter referred to as buffer solution A) was added to the fragments in the amount three times the wet weight of the fragments. Using a Potter-type homogenizer made of Teflon, the mixture was homogenized. The homogenate was filtered using a stainless mesh of a 200 µ size, and then the filtrate was centrifuged at 3000 rpm (900 xg) for ten minutes. The precipitate was suspended in 2.5 parts of buffer solution A, followed by centrifuging at 3000 rpm for five minutes. The residue recovered was suspended in buffer solution A weighing 0.8 times the wet weight of the fragments to produce a crude enzyme solution. The crude enzyme solution was stored at -70°C.
The test sample (less than 10 µl) previously prepared was added to [4-¹⁴C]-testosterone (1.5 nmol, 2.85 kBq), NADPH (0.5 µmol), and the enzyme solution (30 µl) cited above. To this was added the buffer solution A to the extent that the total volume became 100 µl, to prepare a reaction liquid. An enzymatic reaction was performed using the reaction liquid at 37°C for two hours. The enzymatic reaction was initiated by removing the reaction liquid from an ice-water-cooled bath to a 37°C warm bath. The enzymatic reaction was terminated by cooling the reaction liquid in ice-water. […]
A radiation activity of the developed material on the TLC plate cited above was measured by means of an AMBIS image analyzer.
Two spots shown in a chromatogram were subjected to readings of the radiation activities identified by their positions corresponding to testosterone (T) and dihydrotestosterone (DHT) respectively. […] Defining the conversion rate in the presence of the negative control as 100, a percentage of the conversion rate in the presence of the sample was calculated to determine the degree of the enzymatic activity inhibitory ratio of the sample. […]

inhibitory effect on the testosterone 5α-reductase activity	IC50 (Fig. 1, 120 min, read-out: amount exhibiting a inhibitory ratio of 50%)	Structure (SMILES)
considerable high inhibitory effect		C=C(C)[C@H]1CC=C(C)CC1 [d-limonene]
	500 µM	CC1(C)[C@@H](O)CC[C@]2(C)[C@H]3C(=O)C=C4[C@@H]5C[C@@](C)(C(=O)O)CC[C@]5(C)CC[C@@]4(C)[C@]3(C)CC[C@@H]12 [sodium β-glycyrrhetinic acid]
no inhibitory effect		C=C[C@H]1[C@H](O[C@@H]2O[C@H](CO)[C@@H](O)[C@H](O)[C@H]2O)OC=C2C(=O)OCC[C@]21O [swertiamarin]
